# In patent US20260258032A1, “TYROSINE KINASE 2 INHIBITORS AND USES THEREOF” (BIOGEN MA INC., priority 2022, published 2026):
# Counter-ions that a name gives are not always drawn.
# Tests used:
# [1] = tested on: Tyk2 kinase activity on STAT4; assay: pSTAT4 cell assay (MSD, NK92 cells); assay type: cell-based; conditions: compounds 1 hr
# How it was run: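 IC50 values derive from 4-parameter logistic fits of normalized percent activity against log compound concentration. Phospho-STAT was measured by MSD with anti-STAT4 antibodies after 15 min of 30 ng/mL IL2 in serum-starved NK92 cells pretreated 1 hr with compound.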
# [2] = target: T1, JH2 domain of human Tyk2 (Homo sapiens, UniProt P29597); assay: JH2 biochemical assay (TR-FRET probe displacement); assay type: binding
# T1 construct: 10×His-tagged TYK2 JH2 domain (amino acid 575-876)
# How it was run: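 10×His-tagged human TYK2 JH2 (aa 575-876, 2 nM) incubated 60 min with 2 nM fluorescent probe, 0.1 nM Tb anti-His antibody and compound (10-point 3-fold series from […] top). TR-FRET 520/495 nm ratio, falling with probe displacement, normalized and fitted to a 4-parameter logistic for IC50.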
# [3] = TR-FRET probe displacement, JH2 domain of human Tyk2
# T1 sequence (P29597 575-876): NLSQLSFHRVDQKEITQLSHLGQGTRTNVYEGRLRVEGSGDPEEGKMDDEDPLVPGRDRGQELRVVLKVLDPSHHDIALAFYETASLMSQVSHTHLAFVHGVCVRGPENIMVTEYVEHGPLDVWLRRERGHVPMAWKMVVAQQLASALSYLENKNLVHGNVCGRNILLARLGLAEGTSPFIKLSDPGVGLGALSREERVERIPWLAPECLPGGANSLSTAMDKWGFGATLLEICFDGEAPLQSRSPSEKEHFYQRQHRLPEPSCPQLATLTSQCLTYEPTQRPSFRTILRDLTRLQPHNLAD
SMILES,IC50 ([1]; stimulated 15 minutes),IC50 ([2]; JH2 biochemical assay),IC50 ([1]; then stimulated 15 minutes),"IC50 [2, 3]"
"CO[C@@H](C)[C@H](C)Nc1cc(N2CC3(CC3)c3cnc(NC(C)=O)cc32)nc(C(C)(F)F)n1 [Example 165, N-(1′-(2-(1,1-difluoroethyl)-6-(((2S,3S)-3-methoxybutan-2-yl)amino)pyrimidin-4-yl)-1′,2′-dihydrospiro[cyclopropane-1,3′-pyrrolo[3,2-c]pyridin]-6′-yl)acetamide trifluoroacetate]",0.01 to 0.1 µM,≤ 0.01 µM,–,–
"CC(=O)Nc1cc2c(cn1)C1(CC1)CN2c1cc(C)nc(C2CCCN(S(C)(=O)=O)C2)n1 (centres unmarked) [Example 119, N-(1′-(6-methyl-2-(1-(methylsulfonyl)piperidin-3-yl)pyrimidin-4-yl)-1′,2′-dihydrospiro[cyclopropane-1,3′-pyrrolo[3,2-c]pyridin]-6′-yl)acetamide]",0.1 to 1 µM,0.01 to 0.1 µM,–,–
"CC(=O)Nc1cc2c(cn1)C1(CC1)CN2c1cc(C)nc(C2CCS(=O)(=O)C2)n1 (centres unmarked) [Example 98, N-(1′-(2-(1,1-dioxidotetrahydrothiophen-3-yl)-6-methylpyrimidin-4-yl)-1′,2′-dihydrospiro[cyclopropane-1,3′-pyrrolo[3,2-c]pyridin]-6′-yl)acetamide]",≥ 1 µM,0.01 to 0.1 µM,–,–
"CC(=O)Nc1cc2c(cn1)C1(CC1)CN2c1cc(C)nc(N2CC(F)C2)n1 [Example 217, N-(1′-(2-(3-fluoroazetidin-1-yl)-6-methylpyrimidin-4-yl)-1′,2′-dihydrospiro[cyclopropane-1,3′-pyrrolo[3,2-c]pyridin]-6′-yl)acetamide]",0.1 to 1 µM,≤ 0.01 µM,–,–
"CC(=O)Nc1cc2c(cn1)C1(CC1)CN2c1cc(C)cc(N(C)C)n1 [Example 190, N-(1′-(6-(dimethylamino)-4-methylpyridin-2-yl)-1′,2′-dihydrospiro[cyclopropane-1,3′-pyrrolo[3,2-c]pyridin]-6′-yl)acetamide]",≥ 1 µM,0.01 to 0.1 µM,–,–
"CC(=O)Nc1cc2c(cn1)C1(CC1)CN2c1cc(C)cc(N2CCN(C)CC2)n1 [Example 207, N-(1′-(4-methyl-6-(4-methylpiperazin-1-yl)pyridin-2-yl)-1′,2′-dihydrospiro[cyclopropane-1,3′-pyrrolo[3,2-c]pyridin]-6′-yl)acetamide]",≥ 1 µM,0.1 to 1 µM,–,–
"CC(=O)Nc1cc2c(cn1)C1(CC1)CN2c1cc(C)cc(OC2CC(F)C2)n1 (centres unmarked) [Example 348, N-(1′-(6-(3-fluorocyclobutoxy)-4-methylpyridin-2-yl)-1′,2′-dihydrospiro[cyclopropane-1,3′-pyrrolo[3,2-c]pyridin]-6′-yl)acetamide trifluoroacetate]",≥ 1 µM,0.1 to 1 µM,–,–
"CC(=O)Nc1cc2c(cn1)C1(CC1)CN2c1cc(NC[C@H]2CCO2)nc(C(C)(F)F)n1 [Example 162, (R)-N-(1′-(2-(1,1-difluoroethyl)-6-((oxetan-2-ylmethyl)amino)pyrimidin-4-yl)-1′,2′-dihydrospiro[cyclopropane-1,3′-pyrrolo[3,2-c]pyridin]-6′-yl)acetamide]",0.01 to 0.1 µM,≤ 0.01 µM,–,–
"CC(=O)Nc1cc2c(cn1)C1(CC1)CN2c1cc(C)nc(C(F)(F)CO)n1 [Example 289, N-(1′-(2-(1,1-difluoro-2-hydroxyethyl)-6-methylpyrimidin-4-yl)-1′,2′-dihydrospiro[cyclopropane-1,3′-pyrrolo[3,2-c]pyridin]-6′-yl)acetamide]",0.01 to 0.1 µM,≤ 0.01 µM,–,–
"CC(=O)Nc1cc2c(cn1)C1(CC1)CN2c1cc(C)nc(N2CCCCC2)n1 [Example 113, N-(1′-(6-methyl-2-(piperidin-1-yl)pyrimidin-4-yl)-1′,2′-dihydrospiro[cyclopropane-1,3′-pyrrolo[3,2-c]pyridin]-6′-yl)acetamide]",≥ 1 µM,0.01 to 0.1 µM,–,–
"COCc1cc(N2CC3(CC3)c3cnc(NC(C)=O)cc32)nc(C(C)(F)F)n1 [Example 397, N-(1′-(2-(1,1-difluoroethyl)-6-(methoxymethyl)pyrimidin-4-yl)-1′,2′-dihydrospiro[cyclopropane-1,3′-pyrrolo[3,2-c]pyridin]-6′-yl)acetamide]",–,–,0.1 to 1 µM,≤ 0.01 µM
"COC1CCCN(c2cc(C)cc(N3CC4(CC4)c4cnc(NC(C)=O)cc43)n2)C1 (centres unmarked) [Example 188, N-(1′-(6-(3-methoxypiperidin-1-yl)-4-methylpyridin-2-yl)-1′,2′-dihydrospiro[cyclopropane-1,3′-pyrrolo[3,2-c]pyridin]-6′-yl)acetamide]",≥ 1 µM,0.1 to 1 µM,–,–
"COC(C)(C)COc1cc(C)cc(N2CC3(CC3)c3cnc(NC(C)=O)cc32)n1 [Example 336, N-(1′-(6-(2-methoxy-2-methylpropoxy)-4-methylpyridin-2-yl)-1′,2′-dihydrospiro[cyclopropane-1,3′-pyrrolo[3,2-c]pyridin]-6′-yl)acetamide trifluoroacetate]",≥ 1 µM,0.1 to 1 µM,–,–
"CCC1(C#N)CN(c2cc(C)cc(N3CC4(CC4)c4cnc(NC(C)=O)cc43)n2)C1 [Example 197, N-(1′-(6-(3-cyano-3-ethylazetidin-1-yl)-4-methylpyridin-2-yl)-1′,2′-dihydrospiro[cyclopropane-1,3′-pyrrolo[3,2-c]pyridin]-6′-yl)acetamide]",≥ 1 µM,0.01 to 0.1 µM,–,–
"CC(=O)Nc1cc2c(cn1)C1(CC1)CN2c1cc(CN2CCC2)nc(C(C)(F)F)n1 [Example 299, N-(1′-(6-(azetidin-1-ylmethyl)-2-(1,1-difluoroethyl)pyrimidin-4-yl)-1′,2′-dihydrospiro[cyclopropane-1,3′-pyrrolo[3,2-c]pyridin]-6′-yl)acetamide]",0.1 to 1 µM,0.01 to 0.1 µM,–,–
"CC(=O)Nc1cc2c(cn1)C1(CC1)CN2c1cc(C)nc(C23COC(C2)C3)n1 [Example 320, N-(1′-(2-(2-oxabicyclo[2.1.1]hexan-4-yl)-6-methylpyrimidin-4-yl)-1′,2′-dihydrospiro[cyclopropane-1,3′-pyrrolo[3,2-c]pyridin]-6′-yl)acetamide]",0.01 to 0.1 µM,≤ 0.01 µM,–,–
"CC(=O)Nc1cc2c(cn1)C1(CC1)CN2c1cc(NCC2CCN2C)nc(C(C)(F)F)n1 (centres unmarked) [Example 174, N-(1′-(2-(1,1-difluoroethyl)-6-(((1-methylazetidin-2-yl)methyl)amino)pyrimidin-4-yl)-1′,2′-dihydrospiro[cyclopropane-1,3′-pyrrolo[3,2-c]pyridin]-6′-yl)acetamide]",≥ 1 µM,0.01 to 0.1 µM,–,–
"CC(=O)Nc1cc2c(cn1)C1(CC1)CN2c1cc(C)cc(OC2CCC2)n1 [Example 340, N-(1′-(6-cyclobutoxy-4-methylpyridin-2-yl)-1′,2′-dihydrospiro[cyclopropane-1,3′-pyrrolo[3,2-c]pyridin]-6′-yl)acetamide trifluroacetate]",≥ 1 µM,0.01 to 0.1 µM,–,–
"CC(=O)Nc1cc2c(cn1)C1(CC1)CN2c1cc(C)cc(N2CCC(O)C2)n1 (centres unmarked) [Example 189, N-(1′-(6-(3-hydroxypyrrolidin-1-yl)-4-methylpyridin-2-yl)-1′,2′-dihydrospiro[cyclopropane-1,3′-pyrrolo[3,2-c]pyridin]-6′-yl)acetamide]",≥ 1 µM,0.01 to 0.1 µM,–,–
"CC(=O)Nc1cc2c(cn1)C1(CC1)CN2c1cc([C@@H]2C[C@H]2C#N)nc(C(C)(F)F)n1 (racemic) [Example 72, trans-rac-N-(1′-(6-(2-cyanocyclopropyl)-2-(1,1-difluoroethyl)pyrimidin-4-yl)-1′,2′-dihydrospiro[cyclopropane-1,3′-pyrrolo[3,2-c]pyridin]-6′-yl)acetamide or cis-rac-N-(1′-(6-(2-cyanocyclopropyl)-2-(1,1-difluoroethyl)pyrimidin-4-yl)-1′,2′-dihydrospiro[cyclopropane-1,3′-pyrrolo[3,2-c]pyridin]-6′-yl)acetamide]",0.1 to 1 µM,≤ 0.01 µM,–,–
"CC(=O)Nc1cc2c(cn1)C1(CC1)CN2c1cc(-c2cnn(CC(F)(F)F)c2)nc(C(C)(F)F)n1 [Example 392, N-(1′-(2-(1,1-difluoroethyl)-6-(1-(2,2,2-trifluoroethyl)-1H-pyrazol-4-yl)pyrimidin-4-yl)-1′,2′-dihydrospiro[cyclopropane-1,3′-pyrrolo[3,2-c]pyridin]-6′-yl)acetamide]",–,–,≤ 0.01 µM,≤ 0.01 µM
"CC(=O)Nc1cc2c(cn1)C1(CC1)CN2c1cc(-c2ccc(C)nc2)nc(C(C)(F)F)n1 [Example 242, N-(1′-(2-(1,1-difluoroethyl)-6-(6-methylpyridin-3-yl)pyrimidin-4-yl)-1′,2′-dihydrospiro[cyclopropane-1,3′-pyrrolo[3,2-c]pyridin]-6′-yl)acetamide]",0.01 to 0.1 µM,≤ 0.01 µM,–,–
"CC(=O)Nc1cc2c(cn1)C1(CC1)CN2c1cc(NCC(C)F)nc(C(C)(F)F)n1 (centres unmarked) [Example 169, N-(1′-(2-(1,1-difluoroethyl)-6-((2-fluoropropyl)amino)pyrimidin-4-yl)-1′,2′-dihydrospiro[cyclopropane-1,3′-pyrrolo[3,2-c]pyridin]-6′-yl)acetamide trifluoroacetate]",0.01 to 0.1 µM,≤ 0.01 µM,–,–
"COC1CC(COc2cc(C)cc(N3CC4(CC4)c4cnc(NC(C)=O)cc43)n2)C1 (centres unmarked) [Example 350, N-(1′-(6-((3-methoxycyclobutyl)methoxy)-4-methylpyridin-2-yl)-1′,2′-dihydrospiro[cyclopropane-1,3′-pyrrolo[3,2-c]pyridin]-6′-yl)acetamide]",≥ 1 µM,0.1 to 1 µM,–,–
"COCCN1CCN(c2nc(C)cc(N3CC4(CC4)c4cnc(NC(C)=O)cc43)n2)CC1 [Example 233, N-(1′-(2-(4-(2-methoxyethyl)piperazin-1-yl)-6-methylpyrimidin-4-yl)-1′,2′-dihydrospiro[cyclopropane-1,3′-pyrrolo[3,2-c]pyridin]-6′-yl)acetamide trifluoroacetate]",≥ 1 µM,≥ 1 µM,–,–
